Experiments:
[1] = tested on: RPMI-8226 Human Multiple Myeloma; assay: Human tumor cell CFU assay (Test B); type: cell-based; conditions: Homo sapiens, RPMI-8226; colony formation in agar, continuous exposure 7-9 days
Protocol: For human tumor cell CFU assays, the cell lines which grow as monolayers, MDA-MB-231, HCT116, HT29, NCI-H460, KB3-1 and KBV-1 were grown in RPMI medium (Invitrogen/Gibco, Grand Island, N.Y.) supplemented with 5% fetal bovine serum (Invitrogen/Gibco, Grand Island, NY). The RPMI-8226 cell line grows in suspension.
For human tumor cell CFU assays, RPMI-8226 cells were grown in 0.35% agar in DMEM-F12 medium supplemented with 10% fetal bovine serum over a base layer of 0.5% agar in DMEM-F12 medium supplemented with 10% fetal bovine serum
For experiments, human tumor cells (1 103) were plated in 6-well plates in medium supplemented with 5% or 10% fetal bovine serum. The compounds were tested in concentrations over the range from 0.01 to 100 nanomolar in half-log intervals covering […] along with untreated control wells. In later experiments some cases the concentration ranges were refined to focus on the region of interest in the response curves. Each compound concentration was tested in duplicate wells. Cultures were exposed to the compounds continuously for 7-9 days at 37° C. in a humidified atmosphere of 5% carbon dioxide balance air. Each experiment was performed three independent times. Colonies were defined as clusters containing 30 or more cells.
The values were expressed as the mean values with lower and upper 95% confidence intervals in nanomolar concentrations.

[2] = In vitro metabolic stability (Example 22); type: in vitro ADME; conditions: in vitro in mouse, rat, dog, and human
Protocol: (§1) The in vitro and in vivo activity of compound 2 and two of its metabolites (compound 5 and compound 6) were explored and compared with the activity of camptothecin Top1 inhibitors. […] In human HCT-116 colon ca, HT-29 colon ca and NCI-H460 NSCLC cells the concentration response for compound 2, compound 5 and compound 6 were the same. […] Compound 2 was administered intravenously on a QODx3 schedule for 2 cycles.

[3] = tested on: Human DLD-1 Colon Tumor Xenograft Model; assay: Test D xenograft, Compound 2 free base; type: in vivo, nu/nu mice
[4] = tested on: RPMI 8226 (multiple myeloma) human tumor cell line; assay: Cell TiterGlo cell growth inhibition (Test C); type: cell-based; conditions: 72 hours exposure, ATP content luminescence
Protocol: The RPMI 8226 (multiple myeloma) human tumor cell line was exposed to Compound 2 (free base) (or simply referred to herein throughout as “Compound 2”) at concentrations covering a […] (0.1 nM -100 nM) with an exposure time of 72 hours and experimental endpoint of cell growth inhibition as determined by a Cell TiterGlo luminescence assay (Promega) for ATP content. At least two independent experiments were conducted. The results were plotted and trend lines were graphed. […] Exposure to Compound 2 produced exponential killing of cells in a manner consistent with potent inhibition of a critical molecular target.

[5] = tested on: Human HCT-116 Colon Tumor Xenograft Model; assay: Test D xenograft, Compound 2 and metabolites; conditions: 1.7 mg/kg/day IV, qod × 3 for 2 cycles
[6] = tested on: Human LOX-IMVI Melanoma Tumor Xenograft Model; assay: Test D xenograft, Compound 2 free base; conditions: qod × 3 for 2 cycles
[7] = Body weight loss across the Example 22 xenograft studies; type: in vivo, mice; conditions: all dosages IV QODx3 for 2 cycles, except the high dosages in HCT-15 and NCI-H292
Protocol: as §1

[8] = Half-life in nude mice (Example 22); type: in vivo; conditions: for half-life: mouse, in vivo, nude mice
Protocol: The in vitro and in vivo activity of compound 2 and two of its metabolites (compound 5 and compound 6) were explored and compared with the activity of camptothecin Top1 inhibitors. […] In human HCT-116 colon ca, HT-29 colon ca and NCI-H460 NSCLC cells the concentration response for compound 2, compound 5 and compound 6 were the same. […]. Compound 2 was administered intravenously on a QODx3 schedule for 2 cycles.

[9] = tested on: Human SK-MEL-3 Melanoma Tumor Xenograft Model; assay: Test D xenograft, Compound 2 free base; type: in vivo, nu/nu mice; conditions: qod × 3 for 2 cycles
Protocol: (§2) The anti-tumor activity of Compound 2 (free base) was evaluated against a variety of human tumor xenograft models. A summary of the studies, including tumor type, dosing and administration, growth inhibition, and major findings is presented below.

[10] = tested on: Human H460 Non-Small Cell Lung Carcinoma Tumor Xenograft Model; assay: Test D xenograft, Compound 2 free base; type: in vivo, nu/nu mice; conditions: 1.36 mg/kg/day IV, qod × 3 for 2 cycles
Protocol: as §2

[11] = tested on: Human HCT-15 Colon Tumor Xenograft Model; assay: Test D xenograft, Compound 2 free base; type: in vivo, nu/nu mice; conditions: for Increase in Life Span (ILS) / Tumor Growth Delay T-C / Tumor Growth Inhibition T/C (tumor volume): qod × 3 for 2 cycles
[12] = 1 mg/kg/day IV, qod × 3 for 2 cycles
[13] = 4 mg/kg/day IV/QODx3 for 2 cycles

SMILES: CNCCn1c(=O)c2cc(OC)c(OC)cc2c2cnc3cc4c(cc3c21)OCO4 [Compound 2, 8,9-dimethoxy-2,3-methylenedioxy-5-[2-(N-methylamino)ethyl]-5H-dibenzo[c,h]1,6-naphthyridin-6-one]
- IC50 [1]: 0.2 nM
- IC90 [1]: 0.8 nM
- metabolic stability [2]: high metabolic stability
- Increase in Life Span (ILS) [3, 12]: 1.2x
- Tumor Growth Delay T-C [3, 12]: 8 days
- Tumor Growth Inhibition T/C (tumor volume) [3, 12]: 51.3%
- ILS (T/C) [3, 13]: 1.2x
- TGD (T-C) [3, 13]: 8 days
- IC50 ([4]; read-out: IC50 concentration): 3.4 nM
- IC90 ([4]; read-out: IC90 concentration): 30 nM
- Increase in Life Span (ILS) [5]: 1.9x
- Tumor Growth Delay T-C [5]: 28 days
- Tumor Growth Inhibition T/C (tumor volume) [5]: 36.4%
- Increase in Life Span (ILS) ([6]; 1 mg/kg/day IV): 1.1x
- Tumor Growth Delay T-C ([6]; 1 mg/kg/day IV): 2 days
- Tumor Growth Inhibition T/C (tumor volume) ([6]; 1 mg/kg/day IV): 89.4%
- Increase in Life Span (ILS) ([6]; 2 mg/kg/day IV): 2.8x
- Tumor Growth Delay T-C ([6]; 2 mg/kg/day IV): 25 days
- Tumor Growth Inhibition T/C (tumor volume) ([6]; 2 mg/kg/day IV): 66.1%
- Tumor Growth Inhibition T/C (tumor volume) ([6]; 4 mg/kg/day IV): 39.1%
- maximum body weight loss [7]: ≤ 20%
- half-life ([8]; ip): 624 min
- half-life ([8]; iv): 306 min
- half-life ([8]; po): 216 min
- t1/2 ([8]; tumor-bearing mice, compared with nude mice): longer
- Increase in Life Span (ILS) ([9]; 1 mg/kg/day IV): 1.5x
- Tumor Growth Delay T-C ([9]; 1 mg/kg/day IV): 15 days
- Tumor Growth Inhibition T/C (tumor volume) ([9]; 1 mg/kg/day IV): 22.0%
- Increase in Life Span (ILS) ([9]; 1.36 mg/kg/day IV): 2.3x
- Tumor Growth Delay T-C ([9]; 1.36 mg/kg/day IV): 35 days
- Tumor Growth Inhibition T/C (tumor volume) ([9]; 1.36 mg/kg/day IV): 13.4%
- Increase in Life Span (ILS) ([9]; 1.7 mg/kg/day IV): 1.9x
- Tumor Growth Delay T-C ([9]; 1.7 mg/kg/day IV): 26 days
- Tumor Growth Inhibition T/C (tumor volume) ([9]; 1.7 mg/kg/day IV): 16.7%
- Increase in Life Span (ILS) [10]: 1.8x
- Tumor Growth Delay T-C [10]: 21 days
- Tumor Growth Inhibition T/C (tumor volume) [10]: 14.1%
- Increase in Life Span (ILS) ([11]; 1 mg/kg/day IV): 1.3x
- Tumor Growth Delay T-C ([11]; 1 mg/kg/day IV): 14 days
- Tumor Growth Inhibition T/C (tumor volume) ([11]; 1 mg/kg/day IV): 37.1%
- Increase in Life Span (ILS) ([11]; 2 mg/kg/day IV): 1.8x
- Tumor Growth Delay T-C ([11]; 2 mg/kg/day IV): 35 days
- Tumor Growth Inhibition T/C (tumor volume) ([11]; 2 mg/kg/day IV): 8.6%
- maximum body weight loss ([11]; high dosage, IV QODx3 for 2 cycles): 25.7%
